Reference: US20250188133A1, “CHIMERIC BACTERIOCINS AND METHOD FOR THE CONTROL OF PSEUDOMONAS” (priority 2022, published 2025)

Assays:
P. aeruginosa ATCC 27853 = assay: murine lung colonization and treatment (CD1 mice); assay type: in vivo; conditions: 5 h post infection
Procedure: CD1 male mice were supplied by Charles River (Margate, UK) and were specific pathogen free. Mice were 11 to 15 g on receipt at the facility and were allowed to acclimatize for at least 7 days.
P. aeruginosa ATCC 27853 was recovered from long-term storage (−80° C.) and cultured on cystine-lactose-electrolyte-deficient (CLED) agar at 37° C. under aerobic conditions for approximately 16-24 h. 20 ml of Mueller Hinton broth was inoculated with a single well isolated colony and cultured overnight at 37° C. with shaking at 300 rpm65. The overnight broth was diluted 1:100 in Mueller Hinton broth and 100 ml was cultured in a baffle flask for ˜6 h at 37° C. with shaking at 300 rpm until the broth OD was ˜0.6 (˜mid-exponential phase). 20 ml of culture was centrifuged at 2465 g for 10 minutes and washed in PBS. The pellet was suspended in PBS and the OD600 adjusted to 0.67 (˜2.6×10^8 CFU/ml). The study inoculum was prepared from this by appropriate dilution with PBS. The inoculum concentration was confirmed by quantitative culture on Pseudomonas Selective Agar (PSA). The inoculum concentration for the study was 1.47×10^7 CFU/ml (5.87×10^5 CFU/mouse).
Mice were infected under temporary inhaled 3% isoflurane anesthesia by intranasal (IN) instillation with 40 μl of the inoculum suspension split as 20 μl/nostril.
1 hour post infection 6 mice were sacrificed in order to evaluate the pre-treatment burden in lungs. Treatments were administered IN once at 1 h post infection (50 μl split to 25 μl/nares). Three treatment groups consisting of six mice each were administered S5-PmnH (2.5, 25 and 250 μg). The fourth group of mice (n=6) was administered 200 μg Tobramycin (40 mg/ml injection solution, Hospira UK Ltd, diluted 10 times). The study was terminated at 5 hours post infection for all animals. The clinical conditions and weights were assessed and animals were immediately euthanized using an overdose of pentobarbitone. Following confirmation of death, the lungs were excised and homogenized in ice cold sterile phosphate buffered saline using a Precellys bead beater. The homogenates were quantitatively cultured onto PSA agar and incubated at 37° C. for 24 hours before colonies were counted.

P. aeruginosa ATCC 19660 = assay: murine keratitis model, cytotoxic strain (C57BL/6 mice); assay type: in vivo
Procedure: (§1) The inbred mice of C57BL/6 strain of both sexes in equivalent numbers were used for the research. 2-6 months old, adult female and adult male mice were purchased from the Vilnius University vivarium of laboratory animals. The animals throughout the period of the experiment were given standard chow and drinking water ad libitum. Animals were housed in the individual plastic cages in a 12 h light/dark cycle at 21-23° C. All regulated procedures on living animals were approved by The Lithuanian Ethics Committee of Biomedical Research (Protocol no. B1-442) and were carried out in accordance with the European Union legislation of OECD (directive 2010/63/EU). The experiments were carried out in Biological research center of Lithuanian University of Health Sciences.
(§2) For P. aeruginosa infection and keratitis induction the mice were anesthetized by Ketamine and Xylazine 90:9 mg/kg intraperitoneal injection. The cornea of the left eye of each mouse was visualized under a stereoscopic microscope, and three 1 mm scratches were made using a sterile 25 gauge needle. A 10 μL aliquot containing 4×10^6 cells of P. aeruginosa ATCC 19660 (cytotoxic strain) or PAO1 ATCC 15692 (invasive strain) was applied to the corneal surface. Depending on the experiment, the treatment was started 30 min or 6 h post infection. 10 μl aliquot containing 0.14 mg of tobramycin or 20 μg of S5-PmnH (both containing 0.5% hydroxypropyl methylcellulose (HPMC)) or PBS containing 0.5% HPMC was applied as one drop of substance to the each eye. HPMC is used as artificial tears and was used in order to thicken the tears film and prolong the presence of the applied product on the surface of the cornea. The treatment was continued for five days twice daily. Mice were euthanized by cervical dislocation 1, 3, 5 days post infection, and the eyeballs were collected and homogenized for viable bacteria count.
(§3) The eyes were examined and photographed with a dissection microscope equipped with a digital camera at 1, 3 and 5 dpi to monitor the disease progression. At 1, 3 and 5 dpi disease severity was visually graded by using an established corneal damage scale: 0, the pupil was partially or fully covered by clear or slight opacity; +1, the anterior segment was partially or fully covered by slight opacity; +2, the pupil was partially or fully covered by dense opacity; +3, the entire anterior segment was covered by dense opacity; and +4, corneal perforation^40.
(§4) Histopathology experiments were carried out at Lithuanian University of Health Sciences, Department of Veterinary Pathobiology of Veterinary Academy. One randomly chosen mice of each study group was used for histopathology experiments. Enucleated eyes were preserved in 10% formaldehyde. Eyes were paraffin-embedded, cut into 3-μm-thick sections, deparaffinised, rehydrated and used for preparation of hematoxylin/eosin stained samples.

P. aeruginosa PAO1 = assay: murine keratitis model, invasive strain (C57BL/6 mice); assay type: in vivo
Procedure: as §1, §2, §3, §4

P. aeruginosa strains = assay: agar disc-diffusion assay, panel of 25 strains; assay type: cell-based; conditions: panel of 25 P. aeruginosa strains, in words
Procedure: (§5) Overnight P. aeruginosa cultures grown in CAA medium were equalized till OD595=1.0 in CAA and diluted 100×. Sterile cotton swab was briefly submerged in diluted microbial suspension, removing the excess of liquid by pressing it against the container wall. The swab was used for evenly streaking bacteria on plates containing growth medium with CAA solid agar (1.5%). 6 mm diameter sterile Whatman discs were placed on soft-agar and 0.3-30 μg of chimeric pyocins were spotted to paper disks. The plates were incubated overnight at 37° C. and bacteriocin inhibition zones were observed.
(§6) Next, all 25 P. aeruginosa strains were subjected to agar disc-diffusion assay by spotting different amounts of purified pyocin S5 (0.3 μg, 3 μg and 30 μg) on bacteria lawns. Six P. aeruginosa strains were resistant to pyocin S5. Four of these six strains were pyocin S5 and immunity protein-encoding strains—PA14, PAO1, […] and NCTC 13921. Two cystic fibrosis isolates, 12-35708 and 12-29165 were also completely resistant to pyocin S5, despite the absence of S5, or S5 immunity protein coding genes. […] Turbid inhibition zones were detected when 3 μg and 30 μg of S5 were spotted on the lawn of these strains (Table 1, FIG. 3).

P. aeruginosa A19 = assay: agar disc-diffusion assay; assay type: cell-based; conditions: strain A19; 0.3, 3 and 30 μg of protein spotted on discs on CAA agar lawn, overnight
Procedure: as §5, §6

P. aeruginosa Pr335 = assay: agar disc-diffusion assay; assay type: cell-based; conditions: strain Pr335; 0.3, 3 and 30 μg of protein spotted on discs on CAA agar lawn, overnight
Procedure: as §5, §6

P. aeruginosa HP40 = assay: agar disc-diffusion assay; assay type: cell-based; conditions: strain HP40; 0.3, 3 and 30 μg of protein spotted on discs on CAA agar lawn, overnight
Procedure: as §5, §6

[1] = test system: P. aeruginosa Boston 41501 (ATCC 27853); assay: agar disc-diffusion assay; assay type: cell-based; conditions: strain Boston; 0.3, 3 and 30 μg of protein spotted on discs on CAA agar lawn, overnight
Procedure: as §5, §6

P. aeruginosa HP6 = assay: agar disc-diffusion assay; assay type: cell-based; conditions: strain HP6; 0.3, 3 and 30 μg of protein spotted on discs on CAA agar lawn, overnight
Procedure: as §5, §6

P. aeruginosa NCTC 13921 = assay: agar disc-diffusion assay; assay type: cell-based; conditions: strain NCTC 13921; 0.3, 3 and 30 μg of protein spotted on discs on CAA agar lawn, overnight
Procedure: as §5, §6

[2] = treatment started 30 min post infection

Molecule: NC[C@H]1O[C@H](O[C@H]2[C@H](O)[C@@H](O[C@H]3O[C@H](CO)[C@@H](O)[C@H](N)[C@H]3O)[C@H](N)C[C@@H]2N)[C@H](N)C[C@@H]1O [tobramycin, reference compound]
- reduction of lung burden vs vehicle (P. aeruginosa ATCC 27853; 200 μg/mouse IN once 1 h post infection): 2.75 log10 CFU/g
- reduction of burden below the level of stasis (pre-treatment) (P. aeruginosa ATCC 27853; 200 μg/mouse IN once): 1.23 log10 CFU/g
- histopathology of infected treated eyes (P. aeruginosa ATCC 19660; [2]): Only weak oedema in the corneal stroma
- signs of disease (visual inspection, clinical score) (P. aeruginosa ATCC 19660; [2]): No signs of disease were observed in majority of samples
- viable bacteria isolated from infected eyes (P. aeruginosa ATCC 19660; treatment started 30 min post infection, twice daily, 1, 3 or 5 dpi, 20 μg S5-PmnH or 0.14 mg tobramycin per eye): no viable P. aeruginosa were isolated
- viable bacteria isolated (P. aeruginosa ATCC 19660; treatment started 6 h post infection, 1, 3 or 5 dpi): no viable bacteria were isolated
- clinical score evaluation (P. aeruginosa ATCC 19660; treatment started 6 h post infection, 1 and 3 dpi, two S5-PmnH-treated and one tobramycin-treated mice): Only mild disease signs were observed
- histopathology of infected treated eyes (P. aeruginosa ATCC 19660; treatment started 6 h post infection, 3 and 5 dpi): slight thickening of epithelium
- clinical score evaluation (P. aeruginosa ATCC 19660; treatment started 6 h post infection, 5 dpi): all corneas were completely clear
- histological examination of infected treated eyes (P. aeruginosa PAO1; 1 dpi): signs of acute inflammation of cornea
- histological examination of infected treated eyes (P. aeruginosa PAO1; 3 dpi): thinning of cornea epithelium and strong edema of the corneal stroma
- histological examination of infected treated eyes (P. aeruginosa PAO1; day 5): local inflammation of cornea, thinning and degeneration of cornea epithelium
- average reduction of bacterial burden vs mock-treated (P. aeruginosa PAO1; treatment started 6 h post infection, 1 dpi): 1.42 log 10 CFU/cornea
- mice from which no viable bacteria were isolated (P. aeruginosa PAO1; treatment started 6 h post infection, 3 dpi, three mice per group): three
- viable bacteria in cornea, individual mice (P. aeruginosa PAO1; treatment started 6 h post infection, 5 dpi, mice with bacteria): 2.8 log 10 CFU/cornea
- mice from which no bacteria were isolated (P. aeruginosa PAO1; treatment started 6 h post infection, 5 dpi, three mice per group): two

B1: S5-Pflu794: chimeric bacteriocin SEQ ID NO: 17: pyocin S5 first segment fused to P. fluorescens Pflu794 killing domain (protein)
chain: MSNDNEVPGSMVIVAQGPDDQYAYEVPPIDSAAVAGNMFGDLIQREIYLQKNIYYPVRSIFEQGTKEKKEINKKVSDQVDGLLKQITQGKREATRQERVDVMSAVLHKMESDLEGYKKTFTKGPFIDYEKQSSLSIYEAWVKIWEKNSWEERKKYPFQQLVRDELERAVAYYKQDSLSEAVKVLRQELNKQKALKEKEDLSQLERDYRTRKANLEMKVQSELDQAGSALPPLVSPTPEQWLERATRLVTQAIADKKQLQTTNNTLIKNSPTPLEKQKAIYNGELLVDEIASLQARLVKLNAETTRRRTEKASDQANNVDIEEAILFTTTFYENLTEKYGEKVSAVAKELAESAKGKTMRSSKEALQTFEKYKDTYNGRFRSRDRREVDRALKSLDKELLSKNLAKFSKAFGSVSKIGDLTEVFIELENSIRTGDWKPLLLTLEGIGLGMAGTYLVAAVFGISATTPLGIVVFAVLMAATSAYIDDDLVKKVNKDLFGF
modifications: S5-Pflu794
- activity spectrum / profile in agar disc diffusion assay (P. aeruginosa strains): only week activity on 6 tested strains
- Activity in agar disc-diffusion assay (P. aeruginosa A19): *** (activity detected with 0.3 μg of protein)
- Activity in agar disc-diffusion assay (P. aeruginosa Pr335): ** (activity detected with 3 μg of protein)
- Activity in agar disc-diffusion assay (P. aeruginosa HP40): * (activity detected only with 30 μg of protein)
- Activity in agar disc-diffusion assay [1]: * (activity detected only with 30 μg of protein)
- Activity in agar disc-diffusion assay (P. aeruginosa HP6): * (activity detected only with 30 μg of protein)
- Activity in agar disc-diffusion assay (P. aeruginosa NCTC 13921): * (activity detected only with 30 μg of protein)
